From ChEMBL document CHEMBL1201862, “PubChem BioAssay data set” (2004)
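96-well plates; 48 h exposure; 5 concentrations. Endpoints by linear interpolation between flanking doses. Not reached: highest tested concentration assigned. The concentration for 50% growth inhibition is given as GI50.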 Calls of active or inactive are those of the source. Rule as the data show it: active = GI50 up to about 1.1 µM and inactive = higher.

Assays:
Test in all cases: NCI-60 cell line screen, 48 h
[1] = system: HCT-116
[2] = system: MDA-MB-231
[3] = system: UACC-62
[4] = system: SW-620
[5] = system: SK-MEL-28
[6] = system: OVCAR-3
[7] = system: U-251
[8] = system: IGROV-1
[9] = system: UACC-257
[10] = system: Hs-578T
[11] = system: MDA-N
[12] = system: A549
[13] = system: M14
[14] = system: BT-549
[15] = system: T47D
[16] = system: TK-10
[17] = system: SF-268
[18] = system: UO-31
[19] = system: MCF7
[20] = system: CAKI-1

| Structure (SMILES) | GI50 [1] | GI50 [2] | GI50 [3] | GI50 [4] | GI50 [5] | GI50 [6] | GI50 [7] | GI50 [8] | GI50 [9] | GI50 [10] | GI50 [11] | GI50 [12] | GI50 [13] | GI50 [14] | GI50 [15] | GI50 [16] | GI50 [17] | GI50 [18] | GI50 [19] | GI50 [20] |
| --- | --- | --- | --- | --- | --- | --- | --- | --- | --- | --- | --- | --- | --- | --- | --- | --- | --- | --- | --- | --- |
| O=[N+]([O-])c1ccc2nc3c(nc2c1)-c1c2ccccc2cc2cccc-3c12 | 2.87 µM (inactive) | 18.7 µM (inactive) | 10.5 µM (inactive) | 4.83 µM (inactive) | 51.4 µM (inactive) | 12.3 µM (inactive) | 5.9 µM (inactive) | 4.43 µM (inactive) | 18.8 µM (inactive) | 5.37 µM (inactive) | 10.5 µM (inactive) | 48.6 µM (inactive) | 31.3 µM (inactive) | 3.56 µM (inactive) | 0.142 µM (active) | 25.1 µM (inactive) | 13.8 µM (inactive) | 12.1 µM (inactive) | 4.06 µM (inactive) | 9.77 µM (inactive) |
| C/C(=C\[C@H]1C[C@@H]([C@@H]2CC[C@]34C[C@]23C=C[C@@H]2[C@@]3(C)CC=C5C[C@@H](c6ccccc6)OC[C@]5(C)[C@@H]3C[C@@H](O)[C@]24C)C(=O)O1)CO [DICHAPETALIN A] | 1.14 µM (inactive) | 5.35 µM (inactive) | 9.02 µM (inactive) | 2.72 µM (inactive) | 3.74 µM (inactive) | 3.52 µM (inactive) | 1.04 µM (active) | 2.92 µM (inactive) | 1.96 µM (inactive) | 10.9 µM (inactive) | 1.71 µM (inactive) | 2.79 µM (inactive) | 2.77 µM (inactive) | 3.78 µM (inactive) | 2.84 µM (inactive) | 2.84 µM (inactive) | 6.75 µM (inactive) | 2.48 µM (inactive) | 1.78 µM (inactive) | 2.08 µM (inactive) |
